One assay has as its system JJN-3 cells. As to the kind of experiment: Antiproliferative activity on JJN-3 (NIK translocated) multiple myeloma cells (CellTiter-Glo). The class given is cell-based, human. The note with it: Homo sapiens, JJN-3, 96 h, JJN-3 (NIK translocated) cells, 96 hr treatment, averaged values, read-out: JJN-3 Proliferation inhibition (IC50 (nM)). In a few lines: (§1)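 Cells in RPMI 1640 with 2 mM L-glutamine and 10% FCS, treated 96 hr at 37 °C with 9-point 1:3 dilution series, 0.3% DMSO final. Viability read by CellTiter-Glo luminescence, mean of 2 wells. Time-zero blank subtracted; growth expressed as % of untreated control.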

The next assay deals with NIK/MAP3K14 (Homo sapiens (Human), UniProt Q99558). As to the kind of experiment: Inhibition of auto-phosphorylation of recombinant human NF-kappaB-inducing kinase (NIK/MAP3K14) activity (AlphaScreen). The class given is biochemical. The note with it: averaged values over all measurements on all batches, 25 microM ATP. Put shortly:
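GST-tagged NIK (0.2 nM) auto-phosphorylation was run with 25 microM ATP in pH 7.5 Tris buffer with MgCl2 for 1 h at 25 °C. It was detected by AlphaScreen with anti-phospho-IKK Ser176/180 antibody. IC50 came from sigmoidal fits of blank-subtracted % inhibition versus log concentration.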
On the technique in general: In Alpha technology, singlet oxygen from a donor bead excites a nearby acceptor bead.

Assay [1] relates to P-IKKα levels in L363 cells. As to the kind of experiment: Effect of compounds on P-IKKα levels in L363 (NIK translocated multiple myeloma) cells. The note with it: Homo sapiens, L-363, 2 h, 2 hr treatment, averaged values, read-out: Inhibition of pIKKα_L-363 (IC50 (nM)). The class given is cell-based, human. As to the method:
Effect of Compounds on P-IKKα Levels in L363 (NIK Translocated Multiple Myeloma) Cells
All compounds tested were dissolved in DMSO and further dilutions were made in culture medium. Final DMSO concentration was 1% (v/v) in cell assays. The human L363 cells (ATCC) were cultured in RPMI 1640 medium supplemented with GlutaMax and 10% fetal calf serum (PAA). Cells were routinely maintained at densities of 0.2×10^6 cells per ml—1×10^6 cells per ml at 37° C. in a humidified 5% CO2 atmosphere. Cells were passaged twice a week splitting back to obtain the low density. Cells were seeded in 96 well plates (Nunc 167008) at 2×10^6 per ml media in a volume of 75 μl per well plus 25 μl 1 μg/ml recombinant human B-cell activating factor (BAFF/BLyS/TNFSF13B). Seeded cells were incubated at 37° C. in a humidified 5% CO2 atmosphere for 24 hr. Drugs and/or solvents were added (20 μl) to a final volume of 120 μl. Following 2 hr treatment plates were removed from the incubator and cell lysis was achieved by the addition of 30 μl 5× lysis buffer followed by shaking on a plate shaker at 4° C. for 10 min. At the end of this incubation lysed cells were centrifuged at 800×g for 20 min at 4° C. and the lysate was assessed for P-IKKα levels by sandwich immuno-assay carried out in anti-rabbit antibody coated Mesoscale plates. Within an experiment, the results for each treatment were the mean of 2 replicate wells. For initial screening purposes, compounds were tested using an 8 point dilution curve (serial 1:3 dilutions). For each experiment, controls (containing MG132 and BAFF but no test drug) and a blank incubation (containing MG132 and BAFF and 10 μM ADS125117, a test concentration known to give full inhibition) were run in parallel. The blank incubation value was subtracted from all control and sample values. To determine the IC50 a sigmoidal curve was fitted to the plot of % inhibition of control P-IKKα levels versus Log10 compound concentration.

Another assay has as its system KMS12-BM cells. As to the kind of experiment: Antiproliferative activity on KMS12-BM (NIK WT) multiple myeloma cells (CellTiter-Glo). It counts as cell-based, human. To be noted: Homo sapiens, KMS-12-BM, 96 h, 96 hr treatment, averaged values, read-out: KMS-12 Proliferation inhibition (IC50 (nM)). In a few lines:
as §1
Background: Cellular ATP, detected with luciferase, serves as a proxy for viable cell number.

NIK/MAP3K14, sequence (Q99558 whole entry): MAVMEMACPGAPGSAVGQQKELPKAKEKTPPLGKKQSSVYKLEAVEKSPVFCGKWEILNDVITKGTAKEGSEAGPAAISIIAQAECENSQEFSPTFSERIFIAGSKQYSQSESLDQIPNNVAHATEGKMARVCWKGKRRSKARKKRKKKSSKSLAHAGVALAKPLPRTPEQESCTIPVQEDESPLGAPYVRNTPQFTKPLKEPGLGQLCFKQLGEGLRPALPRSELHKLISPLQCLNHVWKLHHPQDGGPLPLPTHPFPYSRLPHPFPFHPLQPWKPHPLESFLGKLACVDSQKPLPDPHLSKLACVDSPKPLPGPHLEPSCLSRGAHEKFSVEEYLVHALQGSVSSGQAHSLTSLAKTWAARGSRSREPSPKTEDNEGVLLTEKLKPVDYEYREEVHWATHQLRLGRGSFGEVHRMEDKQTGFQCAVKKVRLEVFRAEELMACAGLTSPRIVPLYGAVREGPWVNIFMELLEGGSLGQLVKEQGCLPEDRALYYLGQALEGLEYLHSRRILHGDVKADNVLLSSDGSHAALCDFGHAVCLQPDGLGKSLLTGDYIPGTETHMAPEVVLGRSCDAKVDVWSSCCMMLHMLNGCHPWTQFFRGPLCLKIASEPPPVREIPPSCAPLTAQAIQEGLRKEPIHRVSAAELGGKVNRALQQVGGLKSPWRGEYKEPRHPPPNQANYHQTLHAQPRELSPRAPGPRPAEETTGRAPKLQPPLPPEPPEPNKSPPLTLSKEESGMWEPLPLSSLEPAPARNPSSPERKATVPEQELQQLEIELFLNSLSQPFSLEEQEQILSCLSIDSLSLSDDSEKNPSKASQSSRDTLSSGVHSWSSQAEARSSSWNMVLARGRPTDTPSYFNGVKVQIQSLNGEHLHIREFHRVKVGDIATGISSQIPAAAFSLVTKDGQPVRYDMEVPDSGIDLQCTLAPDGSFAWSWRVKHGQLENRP

Take `CC1(C)CCn2ncc(Nc3nccc(-c4cc(C#N)c5c(c4)[C@@](C)(CO)CN5)n3)c2O1` [Compound 25b]: the IC50 in the assay with JJN-3 cells was 3020 nM; on NIK/MAP3K14, 8.1 nM; in assay [1], 7 nM; with KMS12-BM cells it was greater than 10000 nM.
The matching figures for `C[C@]1(CO)CNc2c(C#N)cc(-c3ccnc(Nc4cnn5c4C(=O)N(Cc4ccccc4)CC5)n3)cc21` [Compound 26b]: 1700 nM, 9.5 nM, 25 nM and roughly 9550 nM.
For `CC(C)CN1CCn2ncc(Nc3nccc(-c4cc(C#N)c5c(c4)[C@@](C)(CO)CN5)n3)c2C1=O` [Compound 27b], the IC50 is 1580 nM in the assay on JJN-3 cells, 4.47 nM at NIK/MAP3K14, 13 nM in assay [1] and greater than 10000 nM in the assay with KMS12-BM cells.
As for `Cc1nc2c(cc1Nc1nccc(-c3cc(C#N)c4c(c3)[C@@](C)(CO)CN4)n1)COCC2` [Compound 28], the IC50 was 851 nM in the assay with JJN-3 cells, 1.1 nM at NIK/MAP3K14, 14 nM in assay [1] and greater than 10000 nM with KMS12-BM cells.
On to `CC(C)N1CCCn2ncc(Nc3nccc(-c4cc(C#N)c5c(c4)[C@@](C)(CO)CN5)n3)c2C1=O` [Compound 28b], for which the IC50 in the assay with JJN-3 cells was 3390 nM; at NIK/MAP3K14 it was 17 nM; in assay [1], 251 nM; with KMS12-BM cells, greater than 10000 nM.
Take `CN1CCc2ncc(Nc3nccc(-c4cc(C#N)c5c(c4)[C@@](C)(CO)CN5)n3)cc2C1` [Compound 29]: the IC50 in the assay on JJN-3 cells was roughly 27 nM; at NIK/MAP3K14 it was 3.4 nM; in assay [1], 16 nM; in the assay on KMS12-BM cells, 51 nM.
Taken in the same sequence, the figures for `CN1CCc2cc(Nc3nccc(-c4cc(C#N)c5c(c4)[C@@](C)(CO)CN5)n3)ccc2C1` [Compound 30] were 4 nM, 0.8 nM, 2 nM and 10 nM.
Take `CN1CCc2ccc(Nc3nccc(-c4cc(C#N)c5c(c4)[C@@](C)(CO)CN5)n3)cc2C1` [Compound 31]: the IC50 with JJN-3 cells is 4 nM; at NIK/MAP3K14 it was 1.4 nM; in assay [1], 2 nM; with KMS12-BM cells it was roughly 31 nM.
With `COc1nc2c(cc1Nc1nccc(-c3cc(C#N)c4c(c3)[C@@](C)(CO)CN4)n1)CN(C)CC2` [Compound 32], the IC50 is 195 nM in the assay with JJN-3 cells, 1.7 nM at NIK/MAP3K14, 10 nM in assay [1] and 525 nM with KMS12-BM cells.
For the compound `COCCCc1nc2c(cc1Nc1nccc(-c3cc(C#N)c4c(c3)[C@@](C)(CO)CN4)n1)COCC2` [Compound 33], the IC50 in the assay with JJN-3 cells is 776 nM; at NIK/MAP3K14, 8.1 nM; in assay [1], 17 nM; in the assay with KMS12-BM cells, greater than 10000 nM.
Turning to `C[C@]1(CO)CNc2c(C#N)cc(-c3ccnc(Nc4cc5c(nc4OCC4CC4)CCOC5)n3)cc21` [Compound 34], the IC50 with JJN-3 cells was 1740 nM; on NIK/MAP3K14, 10.5 nM; in assay [1], 23 nM; in the assay on KMS12-BM cells it was greater than 10000 nM.
For `CC1(CO)CNc2c(C#N)cc(-c3ccnc(Nc4cc(Cl)cc5c4OCC5)n3)cc21` (stereo not drawn) [Compound 41], the IC50 with JJN-3 cells was 138 nM; at NIK/MAP3K14, 11.8 nM; in assay [1], 3 nM; in the assay on KMS12-BM cells it was greater than 10000 nM.
With `CNC(=O)c1cc(Nc2nccc(-c3cc(C#N)c4c(c3)[C@@](C)(CO)CN4)n2)c(=O)n2c1CCC2` [Compound 44], the IC50 in the assay on JJN-3 cells was greater than 10000 nM; at NIK/MAP3K14 it was 4.5 nM; in assay [1], 35 nM; in the assay with KMS12-BM cells, greater than 10000 nM.
Take `CC(C)Oc1nc2c(cc1Nc1nccc(-c3cc(C#N)c4c(c3)[C@@](C)(CO)CN4)n1)COCC2` [Compound 46]: the IC50 with JJN-3 cells was 778 nM; at NIK/MAP3K14, 13 nM; in assay [1] it was 20 nM; in the assay with KMS12-BM cells, greater than 10000 nM.
For `Cn1c2c(cc(Nc3nccc(-c4cc(C#N)c5c(c4)[C@@](C)(CO)CN5)n3)c1=O)COCC2` [Compound 48], the IC50 is roughly 2340 nM with JJN-3 cells, 1.6 nM at NIK/MAP3K14, 31 nM in assay [1] and greater than 10000 nM in the assay on KMS12-BM cells.
On to `CC(C)Oc1nc2c(cc1Nc1nccc(-c3cc(C#N)c4c(c3)[C@@](C)(CO)CN4)n1)CN(C)CC2` [Compound 50], for which the IC50 in the assay with JJN-3 cells amounted to 240 nM; at NIK/MAP3K14, 3.4 nM; in assay [1] it was 56 nM; in the assay with KMS12-BM cells it was 3980 nM.
Regarding `C[C@]1(CO)CNc2c(C#N)cc(-c3ccnc(Nc4cnc5c(c4)CN(C4CC4)CC5)n3)cc21` [Compound 51], the IC50 in the assay on JJN-3 cells was 52 nM; on NIK/MAP3K14 it was 3.4 nM; in assay [1] it was 4 nM; in the assay with KMS12-BM cells, roughly 174 nM.
The matching figures for `COc1nc2c(cc1Nc1nccc(-c3cc(C#N)c4c(c3)[C@@](C)(CO)CN4)n1)CN(C1CC1)CC2` [Compound 52]: 200 nM, 7.8 nM, 20 nM and greater than 10000 nM.
For `COc1nc2c(cc1Nc1nccc(-c3cc(C#N)c4c(c3)C(C)(CC(F)F)CN4)n1)CN(C)CC2` (stereo not drawn) [Compound 56], the IC50 in the assay with JJN-3 cells was 3240 nM; at NIK/MAP3K14, 12 nM; in assay [1], 76 nM; in the assay with KMS12-BM cells, roughly 5750 nM.
The matching figures for `C[C@]1(CO)CNc2c(C#N)cc(-c3ccnc(Nc4cc5c(n(CCC6CC6)c4=O)CCOC5)n3)cc21` [Compound 58]: 2400 nM, 35.5 nM, 204 nM and greater than 10000 nM.
Turning to `CCc1c(Nc2nccc(-c3cc(C#N)c4c(c3)[C@@](C)(CO)CN4)n2)ccc2c1CCN(C(C)CO)C2` (stereo partly drawn) [Compound 60], the IC50 in the assay on JJN-3 cells stood at 100 nM; on NIK/MAP3K14, 4.8 nM; in assay [1] it was 17 nM; with KMS12-BM cells it was 603 nM.

For the origin of these results see patent publication US11186589B2, “Cyanoindoline derivatives as NIK inhibitors” (Janssen Pharmaceutica NV, priority 2016, dated 2021).
